tested on: not listed separately; test: Maximum concentration in plasma at Tmax; assay type: ADME, organism-based

Structure (SMILES) | Cmax
N#CC1=C(N2C(=O)CCC2=O)Oc2c(ccc3ccccc23)C1c1ccc(F)c(Cl)c1 (stereo not drawn) | 178 ng/mL
N#CC1=C(N2C(=O)CCC2=O)Oc2c(ccc3ccccc23)C1c1cccc([N+](=O)[O-])c1 (stereo not drawn) | 5 ng/mL
N#CC1=C(N2C(=O)CCC2=O)Oc2c(ccc3ccccc23)C1c1cccnc1 (stereo not drawn) | 55 ng/mL

species on record: Oryctolagus cuniculus; test: Tested for percent inhibition of Neutral metalloprotease in rabbit chondrocytes at 10 uM concentration; assay type: cell-based

Structure (SMILES) | inhibition
N#CC1=C(n2cccc2)Oc2c(ccc3ccccc23)C1c1cccc([N+](=O)[O-])c1 (stereo not drawn) | 4%
N#CC1=C(N2C(=O)CCC2=O)Oc2c(ccc3ccccc23)C1c1ccc(F)c(Cl)c1 (stereo not drawn) | 111%
N#CC1=C(N2C(=O)CCC2=O)Oc2c(ccc3ccccc23)C1c1cccc([N+](=O)[O-])c1 (stereo not drawn) | 86%
N#CC1=C(N)OC2=C(CCc3ccccc32)C1c1cccc([N+](=O)[O-])c1 (stereo not drawn) | 104%
N#CC1C(=O)NC2=C(CCc3ccccc32)C1c1cccc([N+](=O)[O-])c1 (stereo not drawn) | 20%
N#CC1=C(N)Oc2c(ccc3ccccc23)C1c1cccnc1 (stereo not drawn) | 100%
N#CC1=C(N)Oc2c(ccc3ccccc23)C1c1cccc([N+](=O)[O-])c1 (stereo not drawn) | 102%
N#Cc1c(O)nc2c(c1-c1cccc([N+](=O)[O-])c1)CCc1ccccc1-2 | 36%
N#CC1=C(N2C(=O)CCC2=O)Oc2c(ccc3ccccc23)C1c1cccnc1 (stereo not drawn) | 25%
N#Cc1c(N)nc2c(c1-c1cccc([N+](=O)[O-])c1)CCc1ccccc1-2 | 42%

species on record: Oryctolagus cuniculus; test: Tested for percent inhibition of Neutral metalloprotease in rabbit chondrocytes at 10 uM concentration; toxic; assay type: cell-based

Structure (SMILES) | inhibition
N#CC1=C(N)Oc2c(ccc3ccccc23)C1c1ccc(F)c(Cl)c1 (stereo not drawn) | 81%

species on record: Oryctolagus cuniculus; test: Tested for percent inhibition of Neutral metalloprotease in rabbit chondrocytes at 1 uM concentration; assay type: cell-based

Structure (SMILES) | inhibition
N#CC1=C(n2cccc2)Oc2c(ccc3ccccc23)C1c1cccc([N+](=O)[O-])c1 (stereo not drawn) | -5%
N#CC1=C(N2C(=O)CCC2=O)Oc2c(ccc3ccccc23)C1c1ccc(F)c(Cl)c1 (stereo not drawn) | 53%
N#CC1=C(N2C(=O)CCC2=O)Oc2c(ccc3ccccc23)C1c1cccc([N+](=O)[O-])c1 (stereo not drawn) | 69%
N#CC1=C(N)OC2=C(CCc3ccccc32)C1c1cccc([N+](=O)[O-])c1 (stereo not drawn) | 76%
N#CC1C(=O)NC2=C(CCc3ccccc32)C1c1cccc([N+](=O)[O-])c1 (stereo not drawn) | 36%
N#CC1=C(N)Oc2c(ccc3ccccc23)C1c1cccnc1 (stereo not drawn) | 83%
N#CC1=C(N)Oc2c(ccc3ccccc23)C1c1cccc([N+](=O)[O-])c1 (stereo not drawn) | 76%
N#Cc1c(O)nc2c(c1-c1cccc([N+](=O)[O-])c1)CCc1ccccc1-2 | 3%
N#CC1=C(N2C(=O)CCC2=O)Oc2c(ccc3ccccc23)C1c1cccnc1 (stereo not drawn) | 17%
N#CC1=C(N)Oc2c(ccc3ccccc23)C1c1ccc(F)c(Cl)c1 (stereo not drawn) | 111%
N#Cc1c(N)nc2c(c1-c1cccc([N+](=O)[O-])c1)CCc1ccccc1-2 | 36%

species on record: Oryctolagus cuniculus; test: Tested for percent inhibition of Neutral metalloprotease in rabbit chondrocytes at 0.1 uM concentration; assay type: cell-based

Structure (SMILES) | inhibition
N#CC1=C(n2cccc2)Oc2c(ccc3ccccc23)C1c1cccc([N+](=O)[O-])c1 (stereo not drawn) | 1%
N#CC1=C(N2C(=O)CCC2=O)Oc2c(ccc3ccccc23)C1c1ccc(F)c(Cl)c1 (stereo not drawn) | 26%
N#CC1=C(N2C(=O)CCC2=O)Oc2c(ccc3ccccc23)C1c1cccc([N+](=O)[O-])c1 (stereo not drawn) | 17%
N#CC1=C(N)OC2=C(CCc3ccccc32)C1c1cccc([N+](=O)[O-])c1 (stereo not drawn) | 39%
N#CC1C(=O)NC2=C(CCc3ccccc32)C1c1cccc([N+](=O)[O-])c1 (stereo not drawn) | -7%
N#CC1=C(N)Oc2c(ccc3ccccc23)C1c1cccnc1 (stereo not drawn) | 75%
N#CC1=C(N)Oc2c(ccc3ccccc23)C1c1cccc([N+](=O)[O-])c1 (stereo not drawn) | 74%
N#Cc1c(O)nc2c(c1-c1cccc([N+](=O)[O-])c1)CCc1ccccc1-2 | 36%
N#CC1=C(N)Oc2c(ccc3ccccc23)C1c1ccc(F)c(Cl)c1 (stereo not drawn) | 37%
N#Cc1c(N)nc2c(c1-c1cccc([N+](=O)[O-])c1)CCc1ccccc1-2 | 8%

species on record: Rattus norvegicus; test: Percent reduction in arthritis score was measured in CP-20961 injected rats on day 16; assay type: functional; set-up: scale not given: the % may be the effect or the level left

Structure (SMILES) | Activity
N#CC1=C(N2C(=O)CCC2=O)Oc2c(ccc3ccccc23)C1c1cccc([N+](=O)[O-])c1 (stereo not drawn) | 48%
N#CC1=C(N2C(=O)CCC2=O)Oc2c(ccc3ccccc23)C1c1cccnc1 (stereo not drawn) | 41%

species on record: Rattus norvegicus; test: Percent reduction in arthritis score was measured in CP-20961 injected rats; NR is no reduction; assay type: functional, organism-based

Structure (SMILES) | Activity
N#CC1=C(N2C(=O)CCC2=O)Oc2c(ccc3ccccc23)C1c1ccc(F)c(Cl)c1 (stereo not drawn) | No reduction

species on record: Rattus norvegicus; test: Percent inhibition of Concanavalin A stimulated cell proliferation of rat spleen lymphocytes at 0.01 uM; assay type: functional

Structure (SMILES) | inhibition at 0.01 µM
N#CC1=C(N2C(=O)CCC2=O)Oc2c(ccc3ccccc23)C1c1ccc(F)c(Cl)c1 (stereo not drawn) | -16%
N#CC1=C(N2C(=O)CCC2=O)Oc2c(ccc3ccccc23)C1c1cccc([N+](=O)[O-])c1 (stereo not drawn) | 1%
N#CC1=C(N)OC2=C(CCc3ccccc32)C1c1cccc([N+](=O)[O-])c1 (stereo not drawn) | 58%
N#CC1C(=O)NC2=C(CCc3ccccc32)C1c1cccc([N+](=O)[O-])c1 (stereo not drawn) | 8%
N#CC1=C(N)Oc2c(ccc3ccccc23)C1c1cccnc1 (stereo not drawn) | 11%
N#CC1=C(N)Oc2c(ccc3ccccc23)C1c1cccc([N+](=O)[O-])c1 (stereo not drawn) | 73%
N#CC1=C(N2C(=O)CCC2=O)Oc2c(ccc3ccccc23)C1c1cccnc1 (stereo not drawn) | -6%
O=C1CC(c2cccc([N+](=O)[O-])c2)c2ccc3ccccc3c2O1 (stereo not drawn) | 6%
N#CC1=C(N)Oc2c(ccc3ccccc23)C1c1ccc(F)c(Cl)c1 (stereo not drawn) | 38%
N#Cc1c(N)nc2c(c1-c1cccc([N+](=O)[O-])c1)CCc1ccccc1-2 | 15%

species on record: Rattus norvegicus; test: Percent inhibition of Concanavalin A stimulated cell proliferation of rat spleen lymphocytes at 0.1 uM; assay type: functional

Structure (SMILES) | inhibition at 0.1 µM
N#CC1=C(n2cccc2)Oc2c(ccc3ccccc23)C1c1cccc([N+](=O)[O-])c1 (stereo not drawn) | -7%
N#CC1=C(N2C(=O)CCC2=O)Oc2c(ccc3ccccc23)C1c1ccc(F)c(Cl)c1 (stereo not drawn) | 10%
N#CC1=C(N2C(=O)CCC2=O)Oc2c(ccc3ccccc23)C1c1cccc([N+](=O)[O-])c1 (stereo not drawn) | -4%
N#CC1=C(N)OC2=C(CCc3ccccc32)C1c1cccc([N+](=O)[O-])c1 (stereo not drawn) | 87%
N#CC1C(=O)NC2=C(CCc3ccccc32)C1c1cccc([N+](=O)[O-])c1 (stereo not drawn) | 6%
N#CC1=C(N)Oc2c(ccc3ccccc23)C1c1cccnc1 (stereo not drawn) | 89%
N#CC1=C(N)Oc2c(ccc3ccccc23)C1c1cccc([N+](=O)[O-])c1 (stereo not drawn) | 89%
N#CC1=C(N2C(=O)CCC2=O)Oc2c(ccc3ccccc23)C1c1cccnc1 (stereo not drawn) | -5%
O=C1CC(c2cccc([N+](=O)[O-])c2)c2ccc3ccccc3c2O1 (stereo not drawn) | 9%
N#CC1=C(N)Oc2c(ccc3ccccc23)C1c1ccc(F)c(Cl)c1 (stereo not drawn) | 83%
N#Cc1c(N)nc2c(c1-c1cccc([N+](=O)[O-])c1)CCc1ccccc1-2 | 23%

species on record: Rattus norvegicus; test: Percent inhibition of Concanavalin A stimulated cell proliferation of rat spleen lymphocytes at 1 uM; assay type: functional

Structure (SMILES) | inhibition at 1 µM
N#CC1=C(n2cccc2)Oc2c(ccc3ccccc23)C1c1cccc([N+](=O)[O-])c1 (stereo not drawn) | 82%
N#CC1=C(N2C(=O)CCC2=O)Oc2c(ccc3ccccc23)C1c1ccc(F)c(Cl)c1 (stereo not drawn) | 92%
N#CC1=C(N2C(=O)CCC2=O)Oc2c(ccc3ccccc23)C1c1cccc([N+](=O)[O-])c1 (stereo not drawn) | 87%
N#CC1=C(N)OC2=C(CCc3ccccc32)C1c1cccc([N+](=O)[O-])c1 (stereo not drawn) | 95%
N#CC1C(=O)NC2=C(CCc3ccccc32)C1c1cccc([N+](=O)[O-])c1 (stereo not drawn) | 15%
N#CC1=C(N)Oc2c(ccc3ccccc23)C1c1cccnc1 (stereo not drawn) | 95%
N#CC1=C(N)Oc2c(ccc3ccccc23)C1c1cccc([N+](=O)[O-])c1 (stereo not drawn) | 95%
N#CC1=C(N2C(=O)CCC2=O)Oc2c(ccc3ccccc23)C1c1cccnc1 (stereo not drawn) | 85%
O=C1CC(c2cccc([N+](=O)[O-])c2)c2ccc3ccccc3c2O1 (stereo not drawn) | 2%
N#CC1=C(N)Oc2c(ccc3ccccc23)C1c1ccc(F)c(Cl)c1 (stereo not drawn) | 86%
N#Cc1c(N)nc2c(c1-c1cccc([N+](=O)[O-])c1)CCc1ccccc1-2 | 23%

species on record: Rattus norvegicus; test: Percent inhibition of Concanavalin A stimulated cell proliferation of rat spleen lymphocytes at 10 uM; assay type: functional

Structure (SMILES) | inhibition at 10 µM
N#CC1=C(n2cccc2)Oc2c(ccc3ccccc23)C1c1cccc([N+](=O)[O-])c1 (stereo not drawn) | 87%
N#CC1=C(N2C(=O)CCC2=O)Oc2c(ccc3ccccc23)C1c1ccc(F)c(Cl)c1 (stereo not drawn) | 98%
N#CC1=C(N2C(=O)CCC2=O)Oc2c(ccc3ccccc23)C1c1cccc([N+](=O)[O-])c1 (stereo not drawn) | 97%
N#CC1=C(N)OC2=C(CCc3ccccc32)C1c1cccc([N+](=O)[O-])c1 (stereo not drawn) | 99%
N#CC1C(=O)NC2=C(CCc3ccccc32)C1c1cccc([N+](=O)[O-])c1 (stereo not drawn) | 22%
N#CC1=C(N)Oc2c(ccc3ccccc23)C1c1cccc([N+](=O)[O-])c1 (stereo not drawn) | 99%
N#CC1=C(N2C(=O)CCC2=O)Oc2c(ccc3ccccc23)C1c1cccnc1 (stereo not drawn) | 87%
O=C1CC(c2cccc([N+](=O)[O-])c2)c2ccc3ccccc3c2O1 (stereo not drawn) | 15%
N#CC1=C(N)Oc2c(ccc3ccccc23)C1c1ccc(F)c(Cl)c1 (stereo not drawn) | 98%
N#Cc1c(N)nc2c(c1-c1cccc([N+](=O)[O-])c1)CCc1ccccc1-2 | 46%

species on record: Rattus norvegicus; test: Percent inhibition of Concanavalin A stimulated cell proliferation of rat spleen lymphocytes at 0.001 uM; assay type: functional

Structure (SMILES) | inhibition at 0.001 µM
N#CC1=C(N2C(=O)CCC2=O)Oc2c(ccc3ccccc23)C1c1ccc(F)c(Cl)c1 (stereo not drawn) | 18%
N#CC1=C(N2C(=O)CCC2=O)Oc2c(ccc3ccccc23)C1c1cccc([N+](=O)[O-])c1 (stereo not drawn) | 9%
N#CC1=C(N)OC2=C(CCc3ccccc32)C1c1cccc([N+](=O)[O-])c1 (stereo not drawn) | 29%
N#CC1C(=O)NC2=C(CCc3ccccc32)C1c1cccc([N+](=O)[O-])c1 (stereo not drawn) | 9%
N#CC1=C(N)Oc2c(ccc3ccccc23)C1c1cccnc1 (stereo not drawn) | 0%
N#CC1=C(N)Oc2c(ccc3ccccc23)C1c1cccc([N+](=O)[O-])c1 (stereo not drawn) | 33%
N#CC1=C(N2C(=O)CCC2=O)Oc2c(ccc3ccccc23)C1c1cccnc1 (stereo not drawn) | 7%
O=C1CC(c2cccc([N+](=O)[O-])c2)c2ccc3ccccc3c2O1 (stereo not drawn) | 19%
N#Cc1c(N)nc2c(c1-c1cccc([N+](=O)[O-])c1)CCc1ccccc1-2 | 13%

tested on: not listed separately; test: Half life was evaluated; assay type: ADME

Structure (SMILES) | half-life
N#CC1=C(N)Oc2c(ccc3ccccc23)C1c1cccc([N+](=O)[O-])c1 (stereo not drawn) | ~1 h

tested on: not listed separately; test: Time at which the maximum concentration is achieved; assay type: ADME

Structure (SMILES) | Tmax
N#CC1=C(N2C(=O)CCC2=O)Oc2c(ccc3ccccc23)C1c1ccc(F)c(Cl)c1 (stereo not drawn) | 4 h
N#CC1=C(N2C(=O)CCC2=O)Oc2c(ccc3ccccc23)C1c1cccc([N+](=O)[O-])c1 (stereo not drawn) | 6 h
N#CC1=C(N2C(=O)CCC2=O)Oc2c(ccc3ccccc23)C1c1cccnc1 (stereo not drawn) | 0.5 h
